Earlier results, collected in patent US20220079880A1, “SOLID MICELLAR COMPOSITIONS OF CANNABINOID ACIDS” (priority 2019, published 2022).
Read-outs that look alike come from different tables or passages of the source.

How the values were obtained:
[1] = biological target: T1, PPARγ (Homo sapiens, UniProt P37231)
T1 sequence (P37231 1-505): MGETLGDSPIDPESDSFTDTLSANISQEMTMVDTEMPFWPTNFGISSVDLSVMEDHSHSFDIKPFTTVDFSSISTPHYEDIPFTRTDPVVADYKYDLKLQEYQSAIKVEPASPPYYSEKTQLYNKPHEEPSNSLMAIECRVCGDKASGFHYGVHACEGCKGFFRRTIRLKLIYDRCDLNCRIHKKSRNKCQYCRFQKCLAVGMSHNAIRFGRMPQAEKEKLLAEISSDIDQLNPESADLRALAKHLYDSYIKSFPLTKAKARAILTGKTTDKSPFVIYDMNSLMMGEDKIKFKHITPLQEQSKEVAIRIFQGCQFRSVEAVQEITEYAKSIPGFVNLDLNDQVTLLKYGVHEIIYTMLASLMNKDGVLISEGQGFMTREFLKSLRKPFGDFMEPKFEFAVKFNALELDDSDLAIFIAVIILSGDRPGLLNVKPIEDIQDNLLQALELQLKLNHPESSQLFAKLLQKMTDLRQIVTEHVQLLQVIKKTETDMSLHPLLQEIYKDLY

[2] = system: prostate cancer cells; conditions: animal studies
[3] = system: MBS model of epilepsy; conditions: mice
[4] = system: MBS model of epilepsy; conditions: rats
[5] = system: seizures; conditions: response = reduced seizure frequency of greater than 50%; surveys
[6] = biological target: T2, COX-2 (Homo sapiens, UniProt P35354)
T2 sequence (P35354 18-604): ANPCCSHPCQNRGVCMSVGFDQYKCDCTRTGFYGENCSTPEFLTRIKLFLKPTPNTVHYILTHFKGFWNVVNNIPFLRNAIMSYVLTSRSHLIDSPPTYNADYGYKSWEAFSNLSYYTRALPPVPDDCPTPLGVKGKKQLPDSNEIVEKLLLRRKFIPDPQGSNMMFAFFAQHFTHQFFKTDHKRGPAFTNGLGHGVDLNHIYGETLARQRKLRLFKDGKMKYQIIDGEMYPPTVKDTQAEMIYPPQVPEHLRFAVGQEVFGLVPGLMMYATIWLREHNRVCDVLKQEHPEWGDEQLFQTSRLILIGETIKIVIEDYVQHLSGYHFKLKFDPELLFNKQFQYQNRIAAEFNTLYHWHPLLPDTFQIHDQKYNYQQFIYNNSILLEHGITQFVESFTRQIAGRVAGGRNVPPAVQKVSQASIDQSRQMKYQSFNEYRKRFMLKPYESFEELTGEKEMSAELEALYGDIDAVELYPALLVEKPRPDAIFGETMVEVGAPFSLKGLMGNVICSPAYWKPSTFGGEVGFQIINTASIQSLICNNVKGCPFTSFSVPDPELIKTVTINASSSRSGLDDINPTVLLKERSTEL

[7] = nano-size lipid-based systems
[8] = biological target: COX-1 (Homo sapiens, UniProt P23219)
[9] = receptor affinity and effect; purportedly
[10] = biological target: T3, 5-HT1A receptors (Homo sapiens, UniProt P08908)
T3 sequence (P08908 1-422): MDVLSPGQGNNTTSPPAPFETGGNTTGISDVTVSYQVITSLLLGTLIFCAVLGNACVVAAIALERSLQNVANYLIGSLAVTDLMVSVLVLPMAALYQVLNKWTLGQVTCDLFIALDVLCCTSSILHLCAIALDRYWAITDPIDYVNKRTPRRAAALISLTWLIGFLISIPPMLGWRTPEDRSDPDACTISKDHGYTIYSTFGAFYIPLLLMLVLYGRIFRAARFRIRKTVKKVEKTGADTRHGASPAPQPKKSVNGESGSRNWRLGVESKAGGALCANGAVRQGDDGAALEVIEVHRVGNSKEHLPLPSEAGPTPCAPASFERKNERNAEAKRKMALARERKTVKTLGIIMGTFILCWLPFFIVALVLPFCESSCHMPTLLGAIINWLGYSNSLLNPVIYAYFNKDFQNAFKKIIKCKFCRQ

[11] = biological target: TRPA1 (Homo sapiens, UniProt O75762)
[12] = biological target: TRPV1′ (Homo sapiens, UniProt Q8NER1)
[13] = biological target: TRPM8 (Homo sapiens, UniProt Q7Z2W7)
[14] = system: experimentally induced nausea; conditions: rats; 5HT1A receptor-mediated
[15] = system: MDA-MB-231 human breast cancer cells
[16] = biological target: GPR-55 (Homo sapiens, UniProt Q9Y2T6)
Chain of GPR-55 (Q9Y2T6 whole entry, species assumed): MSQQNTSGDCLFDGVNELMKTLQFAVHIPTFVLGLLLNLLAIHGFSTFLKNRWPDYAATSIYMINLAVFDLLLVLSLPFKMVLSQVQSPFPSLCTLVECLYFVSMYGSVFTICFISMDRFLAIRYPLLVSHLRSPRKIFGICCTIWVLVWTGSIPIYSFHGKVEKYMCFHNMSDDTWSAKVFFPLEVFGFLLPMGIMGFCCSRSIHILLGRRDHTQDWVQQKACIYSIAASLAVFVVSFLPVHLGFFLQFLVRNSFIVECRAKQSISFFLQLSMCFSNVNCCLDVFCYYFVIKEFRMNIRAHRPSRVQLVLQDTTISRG

Chain of TRPV1′ (Q8NER1 whole entry, species assumed): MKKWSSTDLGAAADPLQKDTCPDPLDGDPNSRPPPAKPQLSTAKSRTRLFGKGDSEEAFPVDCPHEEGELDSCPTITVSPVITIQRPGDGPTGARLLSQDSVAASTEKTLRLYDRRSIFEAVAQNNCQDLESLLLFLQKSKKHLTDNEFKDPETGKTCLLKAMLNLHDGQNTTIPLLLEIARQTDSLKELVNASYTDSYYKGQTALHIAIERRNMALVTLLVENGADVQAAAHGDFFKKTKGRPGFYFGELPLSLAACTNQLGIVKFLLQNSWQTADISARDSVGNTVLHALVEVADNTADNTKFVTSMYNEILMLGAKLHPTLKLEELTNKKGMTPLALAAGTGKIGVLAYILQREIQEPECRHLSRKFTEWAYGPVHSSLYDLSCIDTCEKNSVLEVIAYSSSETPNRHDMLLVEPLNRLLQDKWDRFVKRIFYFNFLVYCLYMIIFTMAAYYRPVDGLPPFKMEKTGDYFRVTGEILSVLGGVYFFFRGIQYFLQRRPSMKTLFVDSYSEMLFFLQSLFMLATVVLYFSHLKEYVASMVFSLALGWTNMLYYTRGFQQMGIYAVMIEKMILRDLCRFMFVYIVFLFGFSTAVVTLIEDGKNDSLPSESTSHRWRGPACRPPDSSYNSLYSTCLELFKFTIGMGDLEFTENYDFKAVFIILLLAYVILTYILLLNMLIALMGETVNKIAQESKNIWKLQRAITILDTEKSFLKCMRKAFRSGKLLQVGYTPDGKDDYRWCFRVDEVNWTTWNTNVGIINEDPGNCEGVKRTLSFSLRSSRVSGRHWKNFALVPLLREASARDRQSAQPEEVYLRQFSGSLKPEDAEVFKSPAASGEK
Chain of TRPA1 (O75762 whole entry, species assumed): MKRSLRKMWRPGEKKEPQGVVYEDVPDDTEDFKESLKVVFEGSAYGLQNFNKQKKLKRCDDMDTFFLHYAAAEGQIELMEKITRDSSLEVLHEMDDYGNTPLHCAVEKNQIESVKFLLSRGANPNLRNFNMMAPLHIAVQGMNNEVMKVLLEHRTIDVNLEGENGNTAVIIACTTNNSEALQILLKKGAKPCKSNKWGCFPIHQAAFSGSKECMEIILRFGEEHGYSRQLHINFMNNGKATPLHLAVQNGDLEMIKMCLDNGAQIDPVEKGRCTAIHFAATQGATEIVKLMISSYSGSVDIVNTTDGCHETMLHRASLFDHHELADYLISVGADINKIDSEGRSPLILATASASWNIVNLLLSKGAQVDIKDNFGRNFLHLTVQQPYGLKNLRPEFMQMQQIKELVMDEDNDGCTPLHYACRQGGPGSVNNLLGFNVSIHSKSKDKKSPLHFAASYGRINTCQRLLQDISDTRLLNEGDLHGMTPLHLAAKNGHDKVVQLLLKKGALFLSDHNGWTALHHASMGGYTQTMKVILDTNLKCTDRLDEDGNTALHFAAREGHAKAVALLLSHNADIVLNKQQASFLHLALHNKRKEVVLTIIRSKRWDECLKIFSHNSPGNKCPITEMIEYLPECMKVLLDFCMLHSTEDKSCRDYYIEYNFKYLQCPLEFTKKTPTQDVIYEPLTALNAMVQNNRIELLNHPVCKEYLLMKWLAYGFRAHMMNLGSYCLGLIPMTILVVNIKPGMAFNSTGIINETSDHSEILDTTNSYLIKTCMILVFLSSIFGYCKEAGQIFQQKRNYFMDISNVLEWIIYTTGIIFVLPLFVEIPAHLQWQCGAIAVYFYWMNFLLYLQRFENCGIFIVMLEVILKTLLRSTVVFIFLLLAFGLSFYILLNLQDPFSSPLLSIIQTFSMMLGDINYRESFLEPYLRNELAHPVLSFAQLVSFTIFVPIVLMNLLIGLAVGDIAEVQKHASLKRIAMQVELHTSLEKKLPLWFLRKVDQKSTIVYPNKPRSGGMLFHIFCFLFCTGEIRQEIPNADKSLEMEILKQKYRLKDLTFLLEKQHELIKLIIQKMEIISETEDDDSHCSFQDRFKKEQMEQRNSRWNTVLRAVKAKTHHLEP
Chain of COX-1 (P23219 24-599): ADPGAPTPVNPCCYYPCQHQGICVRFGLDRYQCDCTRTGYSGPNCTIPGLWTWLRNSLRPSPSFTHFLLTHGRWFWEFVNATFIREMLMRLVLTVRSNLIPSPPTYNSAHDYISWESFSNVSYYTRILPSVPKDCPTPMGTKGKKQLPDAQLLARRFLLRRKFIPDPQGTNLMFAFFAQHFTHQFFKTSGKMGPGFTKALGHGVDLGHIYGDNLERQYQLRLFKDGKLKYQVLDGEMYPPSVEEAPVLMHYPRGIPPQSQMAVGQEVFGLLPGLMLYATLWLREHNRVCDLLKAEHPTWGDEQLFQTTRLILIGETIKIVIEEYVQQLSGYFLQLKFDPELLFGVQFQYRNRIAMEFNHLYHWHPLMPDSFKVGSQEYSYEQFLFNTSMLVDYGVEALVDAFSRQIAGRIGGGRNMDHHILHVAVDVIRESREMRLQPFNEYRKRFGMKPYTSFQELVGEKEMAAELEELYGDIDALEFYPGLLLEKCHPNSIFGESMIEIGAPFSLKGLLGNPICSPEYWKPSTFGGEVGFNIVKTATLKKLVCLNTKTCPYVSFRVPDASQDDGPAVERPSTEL
Chain of TRPM8 (Q7Z2W7 whole entry, species assumed): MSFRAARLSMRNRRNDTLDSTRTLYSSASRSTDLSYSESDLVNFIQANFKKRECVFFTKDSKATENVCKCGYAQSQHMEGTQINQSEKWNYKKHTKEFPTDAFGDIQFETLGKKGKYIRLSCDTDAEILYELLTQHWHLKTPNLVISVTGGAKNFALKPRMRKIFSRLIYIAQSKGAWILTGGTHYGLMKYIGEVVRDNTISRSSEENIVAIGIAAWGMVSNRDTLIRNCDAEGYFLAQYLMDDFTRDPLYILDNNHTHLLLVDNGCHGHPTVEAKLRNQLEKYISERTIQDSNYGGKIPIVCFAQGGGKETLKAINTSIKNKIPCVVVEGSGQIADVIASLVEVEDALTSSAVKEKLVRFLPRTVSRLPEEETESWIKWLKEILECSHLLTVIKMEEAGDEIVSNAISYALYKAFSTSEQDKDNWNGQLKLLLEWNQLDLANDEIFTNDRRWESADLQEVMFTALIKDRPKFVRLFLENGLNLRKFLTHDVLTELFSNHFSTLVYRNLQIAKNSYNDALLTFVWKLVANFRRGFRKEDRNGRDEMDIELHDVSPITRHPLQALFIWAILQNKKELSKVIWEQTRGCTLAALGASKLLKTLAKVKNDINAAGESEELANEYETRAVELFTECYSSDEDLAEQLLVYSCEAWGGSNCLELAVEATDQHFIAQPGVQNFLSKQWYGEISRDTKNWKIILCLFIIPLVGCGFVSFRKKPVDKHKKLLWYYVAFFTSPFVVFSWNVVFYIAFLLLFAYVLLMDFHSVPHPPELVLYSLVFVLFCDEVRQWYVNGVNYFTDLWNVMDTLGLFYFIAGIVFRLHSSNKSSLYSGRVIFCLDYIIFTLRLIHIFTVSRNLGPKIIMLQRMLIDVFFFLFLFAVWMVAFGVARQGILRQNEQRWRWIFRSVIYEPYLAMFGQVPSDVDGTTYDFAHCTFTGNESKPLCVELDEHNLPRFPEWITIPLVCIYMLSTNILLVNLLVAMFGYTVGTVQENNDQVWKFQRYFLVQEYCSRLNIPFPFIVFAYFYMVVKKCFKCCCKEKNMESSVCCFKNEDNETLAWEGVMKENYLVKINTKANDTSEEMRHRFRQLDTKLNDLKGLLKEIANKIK

Question: Which “PPARγ binding compared with the corresponding neutral cannabinoid” value [1] does the source give for `CCCCCc1cc2c(c(O)c1C(=O)O)[C@@H]1C=C(C)CC[C@H]1C(C)(C)O2` [THCa, tetrahydrocannabinolic acid] here?
Answer: outperform

Question: What about the “effect on spread of prostate cancer cells” value [2] of the same molecule?
Answer: limit the spread

Question: With `C=C(C)[C@@H]1CCC(C)=C[C@H]1c1c(O)cc(CCCCC)cc1O` [CBD, cannabidiol] as the molecule, how does the “ED50 for the MBS model of epilepsy” value [3] read?
Answer: 85 mg/kg

Question: What about the “ED50 for the MBS model of epilepsy” value [4] of the same molecule?
Answer: 89 mg/kg

Question: What about the response rate [5] of the same molecule?
Answer: ~47%

Question: What about the “COX-2 inhibition, in words” value ([6]; compared with CBDa) of the same molecule?
Answer: not nearly as active

Question: What about the “improvement in BA” value [7] of the same molecule?
Answer: 10 ×

Question: Which results are given for `C=C(C)[C@@H]1CCC(C)=C[C@H]1c1c(O)cc(CCCCC)c(C(=O)O)c1O` [CBDa, cannabidiolic acid]?
Answer: concentration that inhibited COX-2 [6]: ~2 µM; COX-1 inhibition, in words [8]: does not inhibit; potency relative to CBD [9]: 1000-4000 ×; affinity for 5-HT1A receptors over CBD [10]: 100 fold; PPARγ binding compared with the corresponding neutral cannabinoid [1]: outperform; activity at TRPA1 [11]: agonist; activity at TRPV1′ [12]: agonist; activity at TRPM8 [13]: agonist; effect on experimentally induced nausea [14]: suppressed; effect on migration of MDA-MB-231 cells [15]: inhibit migration; effect on GPR-55 [16]: inhibitory effects

Question: Which “PPARγ binding compared with the corresponding neutral cannabinoid” value [1] does the source give for `CCCCCc1cc(O)c(C/C=C(\C)CCC=C(C)C)c(O)c1C(=O)O` [CBGa, cannabigerolic acid] here?
Answer: outperform
